Laboratory results reported in patent US12714675B2, “Solid dosage form production” (UNIVERSITY OF LANCASHIRE, priority 2016, dated 2026).

Experiment: optimization of highly concentrated dipyridamole solution for liquid capsule feed (solubility in solvent systems)
Format: physicochemical
Conditions: drug solution in PEG 400
Method: A model drug, dipyridamole, was chosen to test the suitability of this system to provide immediate and extended drug release. Its fluoresce colour and ease of detection allows focusing on the development process. It was decided that the drug solution PEG 400 (10 mg/ml) is the maximum concentration that can be readily prepared.

OCCN(CCO)c1nc(N2CCCCC2)c2nc(N(CCO)CCO)nc(N3CCCCC3)c2n1 [dipyridamole]
maximum concentration that can be readily prepared: 10 mg/mL
